Test results reported in patent US8383612B2, “Use of megestrol acetate for improving heart function and the treatment of heart insufficiency” (Par Pharmaceuticals, Inc., priority 2004, dated 2013).
Entries after “also recorded” stand apart in the source; their conditions may differ.

Tests used:
[1] = Progression of weight, furosemide-study; format: in vivo, Wistar rat
Experimental: During the progression of both studies, the animals were weight-determined twice a week, starting from the date of surgery (laboratory balance model CS2000. Ohaus Corporation, Pine Brook, N.J., USA). The results were calculated corresponding to the post-surgical day of the respective animal.
(§1) Groups A, B and C of the infarction animals received furosemide (Lasix® 250 mg ampoule, Aventis Pharma GmbH, Frankfurt am Main, Germany) starting from day 18 (±2 days) for the whole study in a concentration of 8.6 mg/100 ml in drinking water. This corresponds to an initial dosage of 10 mg/kg/d at a weight of 300 g and an amount of drinking water of 35 ml/d.
Animals from the infarction-placebo group (without furosemide) and all sham-animals received drinking water without supplementation.
(§2) The infarction-furosemide-group corresponds to the blinded infarction-placebo-group of the megestrol acetate-Study (here: infarction-furosemide-group). An additional infarction-surgery group received simple drinking water without furosemide and served as control group for the furosemide-study (here: infarction-placebo-group). In order to expose all animals to equal conditions, in this group the furosemide-study was gavaged unblinded with placebo. A further group is the sham-placebo-group, that corresponds to the blinded sham-placebo-group of the megestrol acetate-study (here: sham-placebo-group).
Like in the megestrol acetate-study, the weight values corresponding to the day post-surgery of the respective animal were compared, but this time the data was analysed as a change of weight starting from the beginning of therapy of the furosemide-study (18th day post-surgery=day 0 of the furosemide-study). This therefore results in a 26 days longer period of observation for the diuretic-study in comparison with the megestrol acetate-study. Furosemide was given until the end of the observation period and to removal of organs, respectively.

[2] = test system: infarction-surgery rats (ligation of the left coronary artery, heart insufficiency); assay: Echocardiography, furosemide-study; format: in vivo, Wistar rat
Experimental: as §1
Between week 28 and 30 post surgery (corresponds to week 22 to 24 in the megestrol acetate-Study or week 25 to 27 in the diuretic study), the heart function of all rats still alive was examined by echocardiography. For this, each rat was first pre-anaesthetised using isoflurane (Curamed Pharma GmbH Karlsruhe, Germany) in a chamber of the anaesthetic unit Univentor 400 Anaesthesia Unit (Agn Tho's, Lidingö, Sweden) pre-anaesthetised and subsequently maintained by using a mask. For the echocardiography examination the thorax region was shaved and the rat was fixed in a position lying on the back. The echocardiography was performed with an Acuson-Sequoia C256 (Siemens, Germany) which was equipped with a 15 MHz sonication head suitable for rat- and mouse echocardiography. The left ventricle (LV) was adjusted in the parastemal long and short axis. […] The diastolic function was evaluated based on the LV-influx profile via the mitral valve (E/A-ratio) by means of a PW-Doppler. The measurement volume of the PW-doppler was placed at the tip of the opened mitral valve flap. The measurements were performed by an independent blinded researcher. In FIG. 1 the progression of weight for all groups is depicted.
as §2

[3] = infarction-furosemide-group, furosemide via drinking water, placebo in the gavage

For `NS(=O)(=O)c1cc(C(=O)O)c(NCc2ccco2)cc1Cl` [furosemide], the “increase of weight over the whole period of time” value ([1]; infarction-furosemide-group) was 1.4 g/day, the “weight at the end of the observation period” value ([1]; infarction-furosemide-group) was 583 ± 12 g and the “weight gained at the end of the observation period” value ([1]; infarction-furosemide-group) was 81%. For the same compound, the “mean weight at the beginning of the diuretic-study” value ([1]; infarction-furosemide-group, day 18 following surgery) was 322 ± 3 g, the “progress of weight in comparison with the placebo-group with infarction” value ([1]; starting from day 105 after beginning of therapy, significant) was “less pronounced progress” and the “effect on the echocardiographically determined heart function” value ([2]; infarction groups with vs. without furosemide) was “no differences; also recorded: no direct effect”. The A [2, 3] was 0.62 ± 0.05 m/s, the E [2, 3] was 0.84 ± 0.03 m/s and the “E:A” value [2, 3] was 1.61 ± 0.21. It also gave an FS [2, 3] of 15.1 ± 1.0 %, an IVS d [2, 3] of 0.13 ± 0.03 cm and an LVEDD [2, 3] of 1.06 ± 0.02 cm. For the same compound, the LVEF [2, 3] was 35.5 ± 2.0 %, the LVESD [2, 3] was 0.90 ± 0.02 cm and the LVHW d [2, 3] was 0.17 ± 0.01 cm.
